From ChEMBL document CHEMBL3865786, “Scaffold-hopping of bioactive flavonoids: Discovery of aryl-pyridopyrimidinones as potent anticancer agents that inhibit catalytic role of topoisomerase IIα” (Eur J Med Chem, 2016)
Active and inactive are the calls of the source. The rule behind the calls is not given here.

Experiments:
[1] = biological target: DNA topoisomerase 2-alpha (Homo sapiens) (UniProt P11388); experiment: Inhibition of human DNA topoisomerase 2alpha-mediated decatenation of kinetoplast DNA at 100 uM after 30 mins by agarose gel electrophoresis
[2] = (§1) Cytotoxicity against HEK293 cells assessed as reduction in cell viability after 48 hrs by MTT assay; assay type: functional; conditions: Homo sapiens, HEK293, 48 h; read-out: LC50 (the source's name)
HEK293 [3] = experiment: as §1; assay type: functional; conditions: Homo sapiens
[4] = Cytotoxicity against African green monkey Vero cells assessed as reduction in cell viability after 48 hrs by MTT assay; assay type: toxicity, cell-based; conditions: chlorocebus sabaeus; for CC50 at 48 h: Vero cells, read-out: LC50; for Activity: vero, 48 h
[5] = Cytotoxicity against human MCF7 cells assessed as reduction in cell viability after 48 hrs by MTT assay; assay type: functional, cell-based; conditions: MCF7, 48 h
[6] = Cytotoxicity against human HeLa cells assessed as reduction in cell viability after 48 hrs by MTT assay; assay type: functional, cell-based
[7] = Cytotoxicity against human A549 cells assessed as reduction in cell viability after 48 hrs by MTT assay; assay type: functional, cell-based; conditions: A549, 48 h
[8] = Cytotoxicity against human HCT116 cells assessed as reduction in cell viability after 48 hrs by MTT assay; assay type: functional, cell-based; conditions: HCT-116, 48 h
[9] = Cytotoxicity against human H357 cells assessed as reduction in cell viability after 48 hrs by MTT assay; assay type: functional, cell-based; conditions: H357, 48 h
[10] = (§2) Anticlonogenic activity against HEK293 cells assessed as inhibition of colony formation incubated for 48 hrs measured after 6 days by crystal violet staining based assay; assay type: functional; conditions: Homo sapiens, read-out: LC50 (the source's name)
HEK293 [11] = experiment: as §2; assay type: functional; conditions: Homo sapiens
HEK293 [12] = experiment: Potency index, ratio of etoposide LC50 to compound LC50 for anticlonogenic activity in HEK293 cells; assay type: functional, Homo sapiens
[13] = Binding affinity to DNA (unknown origin) assessed as hypochromism after 1 hr by UV-Vis absorption spectrophotometric analysis
HEK293 [14] = experiment: Induction of apoptosis in HEK293 cells assessed as deformation after 48 hrs by DAPI staining based fluorescence microscopy; assay type: functional, cell-based; conditions: Homo sapiens
HEK293 [15] = experiment: Induction of apoptosis in HEK293 cells assessed as shrinkage after 48 hrs by DAPI staining based fluorescence microscopy; assay type: functional, cell-based; conditions: Homo sapiens
HEK293 [16] = experiment: Induction of apoptosis in HEK293 cells assessed as bubble shaped nuclei after 48 hrs by DAPI staining based fluorescence microscopy; assay type: functional, cell-based; conditions: Homo sapiens
HEK293 [17] = experiment: Induction of apoptosis in HEK293 cells assessed as normal cells at 1 uM after 48 hrs by Annexin-V/FITC/PI dual staining based flow cytometry (reference value: 98.2 +/- 1.7%); assay type: functional, Homo sapiens
HEK293 [18] = experiment: Induction of apoptosis in HEK293 cells assessed as early apoptotic cells at 1 uM after 48 hrs by Annexin-V/FITC/PI dual staining based flow cytometry (reference value: 0.19 +/- 1.4%); assay type: functional, Homo sapiens
HEK293 [19] = experiment: Induction of apoptosis in HEK293 cells assessed as apoptotic cells at 1 uM after 48 hrs by Annexin-V/FITC/PI dual staining based flow cytometry (reference value: 0.07 +/- 0.2%); assay type: functional, Homo sapiens
HEK293 [20] = experiment: Induction of apoptosis in HEK293 cells assessed as late apoptotic cells at 1 uM after 48 hrs by Annexin-V/FITC/PI dual staining based flow cytometry (reference value: 0.82 +/- 0.5%); assay type: functional, Homo sapiens
HEK293 [21] = experiment: Induction of apoptosis in HEK293 cells assessed as normal cells at 2.4 uM after 48 hrs by Annexin-V/FITC/PI dual staining based flow cytometry (reference value: 98.2 +/- 1.7%); assay type: functional, Homo sapiens
HEK293 [22] = experiment: Induction of apoptosis in HEK293 cells assessed as early apoptotic cells at 2.4 uM after 48 hrs by Annexin-V/FITC/PI dual staining based flow cytometry (reference value: 0.19 +/- 1.4%); assay type: functional, Homo sapiens
HEK293 [23] = experiment: Induction of apoptosis in HEK293 cells assessed as apoptotic cells at 2.4 uM after 48 hrs by Annexin-V/FITC/PI dual staining based flow cytometry (reference value: 0.07 +/- 0.2%); assay type: functional, Homo sapiens
HEK293 [24] = experiment: Induction of apoptosis in HEK293 cells assessed as late apoptotic cells at 2.4 uM after 48 hrs by Annexin-V/FITC/PI dual staining based flow cytometry (reference value: 0.82 +/- 0.5%); assay type: functional, Homo sapiens
HEK293 [25] = experiment: Induction of apoptosis in HEK293 cells assessed as normal cells at 5 uM after 48 hrs by Annexin-V/FITC/PI dual staining based flow cytometry (reference value: 98.2 +/- 1.7%); assay type: functional, Homo sapiens
HEK293 [26] = experiment: Induction of apoptosis in HEK293 cells assessed as early apoptotic cells at 5 uM after 48 hrs by Annexin-V/FITC/PI dual staining based flow cytometry (reference value: 0.19 +/- 1.4%); assay type: functional, Homo sapiens
HEK293 [27] = experiment: Induction of apoptosis in HEK293 cells assessed as apoptotic cells at 5 uM after 48 hrs by Annexin-V/FITC/PI dual staining based flow cytometry (reference value: 0.07 +/- 0.2%); assay type: functional, Homo sapiens
HEK293 [28] = experiment: Induction of apoptosis in HEK293 cells assessed as late apoptotic cells at 5 uM after 48 hrs by Annexin-V/FITC/PI dual staining based flow cytometry (reference value: 0.82 +/- 0.5%); assay type: functional, Homo sapiens
HEK293 [29] = experiment: Induction of apoptosis in HEK293 cells after 48 hrs by Annexin V-FITC/propidium iodide staining based flow cytometry; assay type: functional, cell-based; conditions: Homo sapiens

DNA topoisomerase 2-alpha (Homo sapiens), sequence (P11388 whole entry): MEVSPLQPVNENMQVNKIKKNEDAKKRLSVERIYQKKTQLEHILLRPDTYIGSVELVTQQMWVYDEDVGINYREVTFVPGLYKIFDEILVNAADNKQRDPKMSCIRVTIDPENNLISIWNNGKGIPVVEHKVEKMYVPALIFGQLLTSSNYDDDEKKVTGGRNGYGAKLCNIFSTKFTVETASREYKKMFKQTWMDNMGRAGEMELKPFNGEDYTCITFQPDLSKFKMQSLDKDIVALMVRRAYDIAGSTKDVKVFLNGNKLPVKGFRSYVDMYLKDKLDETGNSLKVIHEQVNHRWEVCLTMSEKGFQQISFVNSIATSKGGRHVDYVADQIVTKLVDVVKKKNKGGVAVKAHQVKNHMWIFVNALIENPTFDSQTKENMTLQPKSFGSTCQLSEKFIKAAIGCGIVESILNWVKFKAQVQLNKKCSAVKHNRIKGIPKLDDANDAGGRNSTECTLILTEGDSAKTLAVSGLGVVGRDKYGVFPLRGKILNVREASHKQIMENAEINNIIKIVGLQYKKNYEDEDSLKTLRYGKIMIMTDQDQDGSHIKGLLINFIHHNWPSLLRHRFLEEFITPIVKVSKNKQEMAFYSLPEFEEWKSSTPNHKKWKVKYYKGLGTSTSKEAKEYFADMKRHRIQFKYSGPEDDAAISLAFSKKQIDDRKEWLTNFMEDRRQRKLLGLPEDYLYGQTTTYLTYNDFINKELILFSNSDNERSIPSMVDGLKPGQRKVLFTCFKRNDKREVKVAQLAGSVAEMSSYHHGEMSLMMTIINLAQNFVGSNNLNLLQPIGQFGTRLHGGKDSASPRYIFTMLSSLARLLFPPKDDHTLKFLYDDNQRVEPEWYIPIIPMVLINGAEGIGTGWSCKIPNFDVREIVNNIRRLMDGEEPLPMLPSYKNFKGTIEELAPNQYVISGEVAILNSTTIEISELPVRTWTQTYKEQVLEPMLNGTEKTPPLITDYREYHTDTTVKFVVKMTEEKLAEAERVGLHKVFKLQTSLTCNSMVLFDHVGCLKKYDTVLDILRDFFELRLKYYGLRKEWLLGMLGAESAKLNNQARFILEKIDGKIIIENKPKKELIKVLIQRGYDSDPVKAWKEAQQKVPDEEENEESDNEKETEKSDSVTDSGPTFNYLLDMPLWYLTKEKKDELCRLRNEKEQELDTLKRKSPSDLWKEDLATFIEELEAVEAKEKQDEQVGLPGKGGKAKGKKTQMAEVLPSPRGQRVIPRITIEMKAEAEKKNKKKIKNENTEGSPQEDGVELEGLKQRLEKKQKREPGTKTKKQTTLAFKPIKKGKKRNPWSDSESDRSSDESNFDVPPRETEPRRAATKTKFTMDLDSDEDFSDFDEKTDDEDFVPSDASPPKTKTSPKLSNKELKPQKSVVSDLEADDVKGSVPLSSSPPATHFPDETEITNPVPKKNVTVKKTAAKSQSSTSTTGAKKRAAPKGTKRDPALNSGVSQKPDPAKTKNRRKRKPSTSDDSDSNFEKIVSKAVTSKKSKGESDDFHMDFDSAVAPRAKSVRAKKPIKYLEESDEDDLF

In the case of `COc1cc(-c2cnc3ccccn3c2=O)cc(OC)c1OC`, the “Topoisomerase 2-alpha inhibition (active/inactive)” value [1] is reported as “Active”, the CC50 [2] is reported as 3 µM and the Activity (HEK293 [3]) is reported as “Dose-dependent effect”. The CC50 at 48 h [4] was 40 µM, the Activity [4] was “Dose-dependent effect” and the IC50 [5] was 3 µM. For the same compound, the IC50 [6] was 2.8 µM, the IC50 [7] was 2.1 µM and the IC50 [8] was 3.2 µM. For the same compound, the IC50 [9] was 3 µM, the CC50 [10] was 1.8 µM and the inhibition (HEK293 [11]) was “Dose-dependent effect”. For the same compound, the RatioLC50 (HEK293 [12]) was 5 - 10.

For `COc1cc(-c2cc(=O)c3ccccc3o2)cc(OC)c1OC`, the “Topoisomerase 2-alpha inhibition (active/inactive)” value [1] was “Active”, the CC50 [2] was 12 µM and the CC50 at 48 h [4] was 52 µM.

In the case of `COc1cccc(-c2cnc3ccccn3c2=O)c1`, the “Topoisomerase 2-alpha inhibition (active/inactive)” value [1] is reported as “Active”, the CC50 [2] is reported as 9 µM and the CC50 at 48 h [4] is reported as 46 µM.

With `O=c1c(-c2cccc3ccccc23)coc2ccccc12` the “Topoisomerase 2-alpha inhibition (active/inactive)” value [1] was “Active”, the CC50 [2] was 12 µM and the CC50 at 48 h [4] was 42 µM.

With `COc1cc(-c2cc(=O)n3ccccc3n2)cc(OC)c1OC` the “Topoisomerase 2-alpha inhibition (active/inactive)” value [1] was “Active”, the CC50 [2] was 9 µM and the CC50 at 48 h [4] was 46 µM. For the same compound, the Activity [13] was “Active”.

For `O=c1c(-c2cc(O)cc(O)c2)cnc2ccccn12`, the “Topoisomerase 2-alpha inhibition (active/inactive)” value [1] was “Active”, the CC50 [2] was 2 µM and the Activity (HEK293 [3]) was “Dose-dependent effect”. The CC50 at 48 h [4] was 50 µM, the Activity [4] was “Dose-dependent effect” and the IC50 [5] was 2 µM. The IC50 [6] was 1.5 µM, the IC50 [7] was 2.8 µM and the IC50 [8] was 3 µM. The IC50 [9] was 3 µM, the CC50 [10] was 2.4 µM and the inhibition (HEK293 [11]) was “Dose-dependent effect”. For the same compound, the RatioLC50 (HEK293 [12]) was 5 - 10.

For `COc1cc(-c2coc3ccccc3c2=O)cc(OC)c1OC`, the “Topoisomerase 2-alpha inhibition (active/inactive)” value [1] was “Active”, the CC50 [2] was 10 µM and the CC50 at 48 h [4] was 50 µM.

For `COc1ccc(-c2cc(=O)n3ccccc3n2)cc1OC`, the “Topoisomerase 2-alpha inhibition (active/inactive)” value [1] was “Active”, the CC50 [2] was 17 µM and the CC50 at 48 h [4] was 50 µM.

With `O=c1cc(-c2ccc(Cl)cc2)nc2ccccn12` the “Topoisomerase 2-alpha inhibition (active/inactive)” value [1] was “Active”, the CC50 [2] was 2.4 µM and the Activity (HEK293 [3]) was “Dose-dependent effect”. For the same compound, the CC50 at 48 h [4] was 47.5 µM, the Activity [4] was “Dose-dependent effect” and the IC50 [5] was 1.8 µM. For the same compound, the IC50 [6] was 2 µM, the IC50 [7] was 2.1 µM and the IC50 [8] was 2.5 µM. The IC50 [9] was 2.3 µM, the CC50 [10] was 2 µM and the inhibition (HEK293 [11]) was “Dose-dependent effect”. For the same compound, the RatioLC50 (HEK293 [12]) was 5 - 10, the Activity [13] was “Active” and the Activity (HEK293 [14]) was “Dose-dependent effect”. For the same compound, the Activity (HEK293 [15]) was “Dose-dependent effect”, the Activity (HEK293 [16]) was “Dose-dependent effect” and the Activity (HEK293 [17]) was 88.48%. For the same compound, the Activity (HEK293 [18]) was 0.02%, the Activity (HEK293 [19]) was 0.66% and the Activity (HEK293 [20]) was 10.83%. The Activity (HEK293 [21]) was 87%, the Activity (HEK293 [22]) was 0% and the Activity (HEK293 [23]) was 0.2%. It also gave an Activity (HEK293 [24]) of 12.8%, an Activity (HEK293 [25]) of 77.6% and an Activity (HEK293 [26]) of 0.42%. The Activity (HEK293 [27]) was 3.41%, the Activity (HEK293 [28]) was 18.56% and the Activity (HEK293 [29]) was “Dose-dependent effect”.

In the case of `O=c1cc(-c2ccc(O)c(O)c2)nc2ccccn12`, the “Topoisomerase 2-alpha inhibition (active/inactive)” value [1] is reported as “Active”, the CC50 [2] is reported as 13 µM and the CC50 at 48 h [4] is reported as 32 µM.

With `COc1ccc(-c2cnc3ccccn3c2=O)cc1` the “Topoisomerase 2-alpha inhibition (active/inactive)” value [1] was “Active”, the CC50 [2] was 19 µM and the CC50 at 48 h [4] was 38 µM.

With `O=c1c(-c2cccc(O)c2)cnc2ccccn12` the “Topoisomerase 2-alpha inhibition (active/inactive)” value [1] was “Active”, the CC50 [2] was 6 µM and the CC50 at 48 h [4] was 52 µM.

With `COc1ccc(-c2cc(=O)c3ccccc3o2)cc1` [4'-METHOXYFLAVONE] the “Topoisomerase 2-alpha inhibition (active/inactive)” value [1] was “Active”, the CC50 [2] was 8.5 µM and the CC50 at 48 h [4] was 45 µM.
